According to ChEMBL document CHEMBL3507680, “University of Dundee, Gates Library screen for HepG2 cell viability”:

Experiment: Human HepG2 cell viability assay in 384 well format
Assay type: toxicity, cell-based
Set-up: dose 125 nL, time 70.5 hour; concentration not given beside the values
Settings: HepG2 cells, read-out: Inhibition

Structure (SMILES) | cytotoxicity at 70.5 h
Cc1ccc(C(=O)NCCCN2CCOCC2)c(Cl)c1 | -6.07%
N[C@@H]1CC[C@@H](NC(=O)c2ccccc2OC(F)(F)C(F)F)C1 | 16%
CC(C)=CCN1C[C@@H](C(=O)O)C[C@H](C(=O)Nc2ccc(C)nc2)C1 | -8.07%
Cc1ccc(S(=O)(=O)N2C[C@H](C3CC3)[C@@H](N)C2)cc1F | -3.15%
O=C(CC1COCCN1)NCCc1noc(-c2ccccc2)n1 (stereo unspecified) | -2.33%
Cc1cccc(C)c1NC(=O)NCC1CCCN(C2CCOCC2)C1 (stereo unspecified) | -8.66%
CCc1nnc(N[C@H](C)c2cccc(OC)c2)o1 | -20.2%
CCCc1nc(C(=O)N2CCN(S(=O)(=O)CC)CC2)cs1 | 10.2%
O=C(COCc1ccccc1)N1CCCn2cncc2C1 | -4.83%
CCN1CCC(NN2CCN(C)CC2)CC1 | -4.47%
O=C(O)[C@@]12CN(c3cnccn3)C[C@@H]1CN(C1CCCC1)C2 | -7.64%
COc1coc(CN2CCCC(CCc3ccccc3C)C2)cc1=O (stereo unspecified) | 2.52%
CCOc1ccc(C(=O)N2Cc3cnc(CC)nc3C2)o1 | -3.48%
CCCN1CCC(NN2CCN(C)CC2)CC1 | -6.76%
CCCN1CCC(Nc2cc(-c3ccccc3)ccc2OC)CC1 | 0.639%
CCc1nc(N2CCN(c3ncccc3C#N)CC2)c2cnn(C)c2n1 | 22%
CNc1ncc(CN(C)c2nccc(CCC(F)(F)F)n2)cn1 | -2.35%
Cc1nc(CN(C)Cc2nc(-c3ccccc3)no2)co1 | -1.63%
CCn1c(CC2CCN(C(=O)C3CCOC3)CC2)nn(C)c1=O (stereo unspecified) | 32.2%
COc1cc(F)ccc1C(C(=O)O)N(C)CCN1CCOCC1 (stereo unspecified) | 15.1%
COc1ccccc1-n1cc(C(=O)NCCn2nc(C)nc2C)cn1 | -9.92%
CC(Cn1cncn1)NCc1n[nH]c2c1CCCCC2 (stereo unspecified) | -10.2%
CN(C)C(C(=O)N1CCC(c2ncc[nH]2)CC1)c1ccc2c(c1)OCO2 (stereo unspecified) | -5.4%

Structure (SMILES) | cytotoxicity at 70.5 h
COc1ccccc1N1CCN(C(=O)Cn2nc(C)cc2C)CC1(C)C | -14.1%
COc1ccc(F)c(CN2CCCC3(CCN(C4CCOCC4)C3)C2)c1 (stereo unspecified) | -4.15%
O=C1CCC(C(=O)N(Cc2ccsc2)CC2CCCO2)=NN1 (stereo unspecified) | -0.382%
CC(C)Cc1noc(CN(C)C(=O)CCNC(=O)c2ccccc2F)n1 | -8.23%
Cc1csc(CNc2ccc(-c3nc(C4CC4)no3)cn2)n1 | -5.44%
O=S(=O)(c1c(Cl)nc2sccn12)N1CCC2(CCNCC2)C1 | -6.41%
COCC[C@]1(O)CCN(CC(=O)NCc2ccccn2)C[C@H]1C | 5.51%
C=Cc1cccc(CN2CCCn3nc(CNS(C)(=O)=O)cc3C2)c1 | -3.84%
O=C(Nc1ccc2c(c1)OCO2)N1CCN(CCc2ccccc2)CC1 | -6.84%
c1cc2ccc(N3CCN(Cc4ccc5c(c4)OCO5)CC3)nc2[nH]1 | -4.53%
Cc1c(CN(C)c2cc(C3CCCNC3)ncn2)[nH]c2ccccc12 (stereo unspecified) | -14.2%
CCC(C)N(Cc1cccnc1)C(=O)c1ccc(F)c(O)c1 (stereo unspecified) | 12.9%
O=C(c1cn(CC(=O)N2CCCCCC2)c2ccccc12)C1CC1 | -7.67%
CCC[C@@H]1CN(Cc2ccccc2SC)C[C@H]1NC(C)=O | -5.44%
COc1cccc(S(=O)(=O)N2CCCCC2CCN2CCOCC2)c1 (stereo unspecified) | 24.6%
CCN1CC2(CCN(C(=O)C(C)Oc3ccc(F)cc3Cl)CC2)CC1=O (stereo unspecified) | 25%
CCCc1nc(N2CC[C@@H](c3ccc4ccccc4c3)[C@H](O)C2)no1 | -0.24%
CCn1c(CC2CCN(C(=O)C3COCCO3)CC2)nn(C)c1=O (stereo unspecified) | 42.7%
Cc1cnc(N2CC[C@@]3(O)CCCC[C@H]3C2)nc1-c1ccnn1C | -7.52%
O=C(c1ccc(S(=O)(=O)NC2CCC2)cc1)N1CC[C@H]2CNC[C@H]21 | -3.93%
Cc1nnsc1C(=O)NCc1cccnc1N1CCCC(O)C1 (stereo unspecified) | -15.1%
Cc1ccccc1CN(Cc1ccncc1)CC(C)C | -4.55%
CC(C1CCN(Cc2ccc(N(C)C)nc2)CC1)N(C)C (stereo unspecified) | -2.39%

Structure (SMILES) | cytotoxicity at 70.5 h
COC1CCN(S(=O)(=O)N2CC[C@@](O)(C3CCC3)[C@H](C)C2)CC1 | -11.9%
CC(C)[C@H]1CN(Cc2ccncc2)C[C@@H]1NC(=O)C1(C#N)CCOCC1 | -1.7%
CNc1ccc(C(=O)N(C)Cc2ccc3ccccc3n2)cn1 | -8.44%
COCCN(C)Cc1cc(Cl)ccc1OCC(O)CN1CCCCCC1 (stereo unspecified) | -11.6%
Cc1cc(C)cc(CCC(=O)N(C)CCc2cn[nH]c2)c1 | -14.2%
O=C(O)c1cccnc1CN1CCOc2ccccc2C1 | -9.48%
CCC(=O)N1CCC(n2cc(C(C)(C)O)nn2)CC1 | -6.93%
COC(=O)[C@@H]1C[C@@H](NC(=O)CN2C(=O)N(C)Cc3ccccc32)CN1C | -3.77%
CCn1ncnc1C1CC(=O)NCc2nc(N)sc21 (stereo unspecified) | 27.6%
CCc1cnc(C)nc1NCCC(=O)N1CCC(C)CC1 | -0.743%
CCCN1C[C@H]2CC[C@@H]1CN(Cc1cccc(-n3cccn3)c1)C2 | -0.983%
COc1ccccc1N1CCC(N2CCOC(C(F)(F)F)C2)CC1 (stereo unspecified) | -3.26%
O=C(C1CCOCC1)N1CCC(OCc2cccnc2)CC1 | -12%
NC1CCCc2c1cnn2-c1cc(F)cc(F)c1 (stereo unspecified) | -4.65%
O=C1CC2(CCN(CC3CC3)CC2)CN1Cc1cc(F)cc(F)c1 | -2.81%
CCOc1ccnc(NCCc2nc(C)cc(=O)[nH]2)n1 | -2.38%
O=C(c1cnc(Cc2c(Cl)cccc2Cl)nc1O)N1CCNCC1 | 8.34%
COCCN(Cc1ccccn1)C(=O)C1CCCCCN1C (stereo unspecified) | -9.93%
Cc1cc(C)c2nc(CN(C)C(C)c3ccncn3)cc(O)c2c1 (stereo unspecified) | -4.38%
CCN1CC2(CCC1=O)CCN(CCOc1ccc(F)cc1)CC2 | -13%
Cc1ccc(C#N)c(N2CCC3(CCC(=O)N(CC(N)=O)C3)CC2)n1 | -9.24%
O=C(O)C1(Cc2ccccc2Cl)CCN(c2ncnc3[nH]ccc23)CC1 | 10.8%
CSc1ncc(C(=O)N2C[C@H]3CC[C@@H]2CN(S(=O)(=O)N(C)C)C3)cn1 | -1.22%

Structure (SMILES) | cytotoxicity at 70.5 h
CC(C)(N)c1cn(C2CCN(C3CCSCC3)CC2)nn1 | -6.81%
COCc1cc(N2CCN(Cc3ccncc3)CC2)n2nccc2n1 | -1.74%
COc1ccc2c(c1)CCN(Cc1cscn1)CC2 | -0.57%
CCC(Cn1ccnc1)n1cnc2scc(C)c2c1=O (stereo unspecified) | 13.9%
Cc1cc(N2CCC3(CC2)C(C(=O)O)CC(=O)N3C)nc2ccccc12 (stereo unspecified) | -6.81%
Cn1c(CN2CCOCC2)nnc1C1CCCN(CC(N)=O)C1 (stereo unspecified) | 3.41%
COCC(O)CNC(=O)c1coc(COc2ccc3sc(C)nc3c2)n1 (stereo unspecified) | -9.49%
CCN(CC)S(=O)(=O)N1CCCC(c2cccc(C(=O)O)c2)C1 (stereo unspecified) | -6.99%
CCOc1ccc(-c2ccnc(CC)n2)cc1C(=O)O | -7.1%
O=C(Cc1ccccn1)N1C[C@@H]2CC[C@H](C1)N(Cc1ccccc1)C2=O | 6.93%
CCNC(=O)c1ccnc(NCC2COc3cc(OC)ccc3C2)c1 (stereo unspecified) | -3.26%
CC(C)CN1CCC(c2nc3c([nH]2)CC(C)(C)CNC3=O)C1 (stereo unspecified) | -9.67%
COc1ccc(C(=O)N2C[C@@H](CN3CCOCC3)[C@@H](CO)C2)c(C)c1 | -7.76%
Cc1ccc(CN2CCC(c3nnc(CN4CCCCC4)n3C)CC2)o1 | -5.72%
COc1ccccc1OCc1cc(C(=O)N2C[C@H](O)[C@@H](N(C)C)C2)n[nH]1 | -4.57%
O=C(NC(CO)CO)c1coc(COc2cccc(F)c2)n1 | -13%
COCCN1CCN(Cc2ccc(F)c(C)c2)[C@H]2CS(=O)(=O)C[C@H]21 | 17.8%
O=C(Cc1cccc(Cl)c1)N[C@@H]1CCNC[C@H]1O | -3.16%
Cc1ccccc1CSc1nc(N)cc(N2CCOC(C(N)=O)C2)n1 (stereo unspecified) | 1.56%
COCCCn1ccnc1-c1cnc(OC)nc1 | -9.97%
COc1ccc(C(=O)C2CCCN(CCCn3cccn3)C2)c(OC)c1 (stereo unspecified) | 20.9%
CCN1CC(C(=O)N2CCC(Oc3ccccc3C)CC2)CC1=O (stereo unspecified) | -7.02%
CCNC(=O)[C@@H]1C[C@H](NC(=O)c2ccccc2C#N)CN1CCCSC | -2.96%

Structure (SMILES) | cytotoxicity at 70.5 h
COCCC1(CO)CCCN(Cc2ccc(F)c(C)c2)C1 (stereo unspecified) | -6.14%
CCn1c(Cn2cncn2)nnc1C1CCN(C(=O)CCSC)CC1 | -4.61%
Cc1cc(C)c2nc(CN3CC[C@@H](O)C3)cc(O)c2c1 | -4.35%
N#Cc1ccccc1CN1C[C@@H]2CC[C@H](C1)N(Cc1cscn1)C2=O | -11.1%
Cc1cccnc1CN1CCC(c2nnc(Cn3cccn3)n2C)CC1 | -7.96%
CCn1c(CN(C)C)nnc1C1CCN(c2ccnc(C)c2)CC1 | -3.44%
COc1ccc(C(=O)N2C[C@@H](C(=O)O)[C@H](c3ccccc3C)C2)c(O)c1 | -6.81%
CSCCC1c2nc[nH]c2CCN1Cc1cc(Cl)ccc1O (stereo unspecified) | -5.87%
Cc1cc(N2CCCN(C(=O)Cc3csc(C)n3)CC2)ccn1 | -12.4%
COc1ccc2c(c1)OCC(CNC(=O)c1ccc(=O)n(C)c1)C2 (stereo unspecified) | -10%
CC(C)Cc1noc(CN(C)C(=O)C2COc3ccccc3C2)n1 (stereo unspecified) | -14.4%
COc1cccc2c1OCC(CNC(=O)CSc1nc(N)n[nH]1)C2 (stereo unspecified) | -12%
CCn1nc(CNC(=O)C2CC(=O)N(C3CCCC3)C2)c2ccccc21 (stereo unspecified) | 13.8%
OCC1CCCCN1c1ccc(-c2nc(-c3ccccc3F)no2)cn1 (stereo unspecified) | -24.7%
Cc1cncc(C(=O)N2CCC(Cn3cc(-c4ccsc4)nn3)CC2)c1 | -16.9%
COCCN(C)C(=O)Cn1cccc(OC)c1=O | -9.38%
Cn1cc(CN2CC[C@@H]3[C@@H](CCC(=O)N3CCC3=CCCCC3)C2)cn1 | -4.77%
COCc1cn([C@@H]2c3ccccc3C3(CCNCC3)[C@H]2O)nn1 | -6.38%
O=C(O)[C@@H]1CN(C(=O)c2ccc3[nH]nnc3c2)C[C@H]1c1cccc(F)c1 | -8.9%
